Laboratory results: ChEMBL document CHEMBL4622839, “Induction of enantio-selective apoptosis in human leukemia HL-60 cells by (S)-erypoegin K, an isoflavone isolated from Erythrina poeppigiana” (Bioorg Med Chem, 2020)
Calls of active or inactive are those of the source. The rule behind the calls is not given here.

Experiments:
[1] = test system: HL-60; experiment: Induction of apoptosis in human HL60 cells assessed as caspase 3 activation at 0.1 to 0.5 uM incubated up to 24 hrs by flurometric analysis; assay type: functional, cell-based
[2] = test system: HL-60; experiment: Induction of apoptosis in human HL60 cells assessed as increase in MG level accumulation at 1 to 3 uM incubated for 8 to 24 hrs by HLPC analysis; assay type: functional, cell-based
[3] = test system: HL-60; experiment: Induction of apoptosis in human HL60 cells assessed as nuclear condensation/fragmentation at 5 uM incubated for 6 hrs by Hoechst 33342 staining-based fluorescence microscopic method; assay type: functional, cell-based
[4] = test system: HL-60; experiment: Antiproliferative activity against human HL60 cells assessed as inhibition of cell viability up to 50 uM incubated for 48 hrs by MTS assay; assay type: functional, cell-based
[5] = target: Lactoylglutathione lyase (Homo sapiens, UniProt Q04760); experiment: Inhibition of recombinant human Glyoxalase-1 expressed in Escherichia coli BL21 (DE3) assessed as inhibition of S-D-lactoylglutathione formation using MG and reduced glutathione as substrate measured for 2 mins by spectrophotometric method
Sequence of Lactoylglutathione lyase (Q04760 whole entry): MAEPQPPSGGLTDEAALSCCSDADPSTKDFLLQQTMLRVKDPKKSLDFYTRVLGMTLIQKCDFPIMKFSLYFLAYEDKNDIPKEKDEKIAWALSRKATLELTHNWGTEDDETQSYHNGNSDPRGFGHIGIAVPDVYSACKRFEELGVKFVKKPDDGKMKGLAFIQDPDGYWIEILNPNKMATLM

[6] = test system: HL-60; experiment: Induction of apoptosis in human HL60 cells assessed as caspase 9 activation at 0.1 to 0.5 uM incubated up to 24 hrs by flurometric analysis; assay type: functional, cell-based
[7] = test system: HL-60; experiment: Antiproliferative activity against human HL60 cells assessed as inhibition of cell viability incubated for 48 hrs by MTS assay; assay type: functional, cell-based; conditions: for IC50: HL-60, 48 h
[8] = test system: HL-60; experiment: Induction of apoptosis in human HL60 cells assessed as DNA ladder formation at 1 to 3 uM incubated for 5 hrs by agarose gel electrophoresis method; assay type: functional, cell-based
[9] = organism: Homo sapiens; experiment: Selectivity index, ratio of IC50 for recombinant human Glyoxalase-1 expressed in Escherichia coli BL21 (DE3) to IC50 for antiproliferative activity against human HL60 cells

| IC50 [5] | IC50 [7] | Compound | Activity [1] | Activity [2] | Activity [3] | Activity [4] | Activity [6] | Activity [7] | Activity [8] | Ratio IC50 [9] |
| --- | --- | --- | --- | --- | --- | --- | --- | --- | --- | --- |
| 100 µM | – | CC(C)(O)[C@H]1Cc2c(cc(O)c3c(=O)c(-c4ccc(O)cc4)coc23)O1 | inactive | inactive | inactive | inactive | inactive | inactive | inactive | – |
| 100 µM | 0.09 µM | CC(C)(O)[C@@H]1Cc2c(cc(O)c3c(=O)c(-c4ccc(O)cc4)coc23)O1 | – | – | Active | – | – | – | Active | – |
| 109 µM | 0.175 µM | CC(C)(O)C1Cc2c(cc(O)c3c(=O)c(-c4ccc(O)cc4)coc23)O1 (racemic) | – | – | – | – | – | – | – | 625 |
